# Measured values reported in patent US10441657B2, “Methods and compositions for self-regulated release of active pharmaceutical ingredient” (Acura Pharmaceuticals, Inc., priority 2012, dated 2019).
# How the values were obtained:
# [1] = pH of dissolution vessel with calcium carbonate antacid tablets in HCl; type: physicochemical; conditions: in 10 minutes (FIG. 1)
# Description: Two dissolution vessels were prepared: one vessel contained 25 mEq of HCl and a single commercially available calcium carbonate antacid tablet (Tums®), and the other vessel contained 25 mEq of HCl and five calcium carbonate antacid tablets. […] Calcium carbonate has shown a capability as a pH modifier and pH dependent solubility.
# [2] = earlier experimentation
# Description: Thus, sodium bicarbonate was added to a prototype formulation primarily to control rapid pH elevation and calcium carbonate for a more sustained control of elevated pH.
SMILES,pH change seen for calcium carbonate [1],time to raise acid media from pH 1 to pH 6 [2]
O=C([O-])[O-].[Ca+2] [calcium carbonate],5,–
O=C([O-])O.[Na+] [sodium bicarbonate],–,less than 2 minutes
